Results from US5073571A, “Method of inhibiting virus” (priority 1989, dated 1991).

What was measured:
[1] = tested on: HIV-1; test: HIV-1 replication in H9 cells, reverse transcriptase activity of culture supernatants (acute infection); type: cell-based, HIV-1 strain HXB2gptX (in human H9 cells); settings: for effect on reverse transcriptase activity: 1-10 μM, 10 day incubation, HIV-1 infected H9 cells; for activity at 100 µM: Human immunodeficiency virus 1, H9, 240 h, read-out: reverse transcriptase (RT) activity
Description: (§1) Media was changed every other day. The effect of these compounds on virus production was determined by measuring the reverse transcriptase (RT) activity in samples of the cell culture supernatants. […] Negative controls consisted of no additions or 0.1ethanol. The results of duplicate assays were averaged. Panel B -Concentration-dependent effects of 13-oxamyristic acid on HIV-1 replication as measured by RT activity (percent of untreated control) and the presence of p24 antigen (ng/ml determined by ELISA). Error bars indicate the S.E.M. of assays done in triplicate. Panel C - The effect of 13-oxamyristic acid on syncytia formation using an arbitrary scale described under Materials and Methods, Example 16, below. Panel D - Toxicity of 13-oxamyristic acid determined by viable cell count (trypan blue exclusion), as well as by [^3 H]thymidine and [^3 H]leucine labeling (see under Materials and Methods, Example 16, below). The incorporation of these radiolabeled compounds was determined in the total cell population contained in a well after 10 days of treatment with the analog. Duplicate assays were performed and the results averaged.
Assay for HIV-1 Replication. The human T-lymphoid cell line, H9, was provided by R. D. Gallo (NIH) and maintained in RPMI-1640 medium supplemented with 10% fetal bovine serum, 100 IU/mL penicillin, 100 μg/mL streptomycin an 2 mM L-glutamine. HIV-1 strain HXB2gptX [Fisher et al., Science 233, 655-659 (1986)] was obtained from cultures of chronically infected H9 cells [Popovic et al., Science 224, 497-500 (1984)]< filtered through 0.2 μm Millipore filters and stored at -90° C. The titer of the virus stock was determined by serial dilution using syncytia formation and reverse transcriptase activity (see below) as a measure of infectivity in H9 cells.
Cell-free HIV-1, at a multiplicity of infection (m.o.i.) equal to 0.01-0.001, was added to 10^7 H9 cells which had been pretreated with 2 μg/ml Polybrene® (hexadimethrene bromide, Sigma). Following a 30 min incubation at 37° C. to absorb the virus, 4 × 10^5 of virus treated cells in 1 mL of fresh medium (plus 10% fetal calf serum, pencillin and streptomycin) were added to each well of a 24 well tissue culture plate (Falcon), and mixed with an equal volume of serum-free RPMI-1640 medium containing analog. Medium containing 5% serum, antibiotics ± analog was replaced every other day. Each of the heteroatom substituted analogs was prepared as a 100 mM stock solution in 100% ethanol and stored at -90° C. prior to dilution in the serum-free RPMI-1640 medium. The maximum final ethanol concentration reached after dilution of the different analogs in media was 0.1%. Therefore, uninfected and infected H9 cells, treated with or without 0.1% ethanol, were used as controls for each test. Ethanol alone had no demonstrable effects.
Except for the preliminary screening of the various (coded) analogs which was done twice, all other assays were performed at least three times. Samples were tested in duplicate each time the assay was repeated.
Virus Assays. Virus was quantitated using supernatant solutions of cells harvested on day 8 (m.o.i.=0.01) or day 10 (m.o.i.=0.001) of treatment. Virions were concentrated 10 fold by precipitation of culture supernatants with a solution of polyethylene glycol (30% in 150 mM NaCl, 0.1 mM phenylmethylsulfonylfluoride). The precipitates were solubilized and virus-associated reverse transcriptase (RT) activity measured by [^32 P]TTP incorporation using a poly(rA)-oligo(dT) template [Poiesz et al., Proc. Natl. Acad. Sci. USA 77, 7415-7419 (1980)]. Cell supernatants were also tested for virus-specific antigen using a p24 ELISA from Dupont (Wilmington, DE). This assay can detect as little as 0.03 ng of antigen/mL (antigen=p24, the major structural nucleocapsid protein of HIV-1, as well as its precursor, Pr55^gag).
HIV-1 Replication in H9 Cells is Inhibited by Treatment with Heteroatom-Containing Analogs of Myristate. […]

[2] = Hydrophobicity; type: physicochemical; settings: thioether moiety introduced into the fatty acid chain
[3] = tested on: myristoyl CoA: protein N-myristoyl transferase (NMT); test: Ability to act as substrate for NMT; type: biochemical
From the text: Purification and use of this enzyme are described, for example, by Towler et al., Proc. Natl. Acad. Sci. USA 84, 2708-2712 (1987); J. Biol. Chem. 262, 1030-1036 (1987).

[4] = tested on: HIV-1; test: Syncytia assay in HIV-1 infected H9 cells; type: cell-based, HIV-1 strain HXB2gptX (in human H9 cells); settings: compared to infected, untreated H9 controls
Description: as §1
Assay for HIV-1 Replication. The human T-lymphoid cell line, H9, was provided by R. D. Gallo (NIH) and maintained in RPMI-1640 medium supplemented with 10% fetal bovine serum, 100 IU/mL penicillin, 100 μg/mL streptomycin an 2 mM L-glutamine. […] The titer of the virus stock was determined by serial dilution using syncytia formation and reverse transcriptase activity (see below) as a measure of infectivity in H9 cells. […]
Syncytia Assay. The number of syncytia in each well was determined by microscopic examination on days 4-6 (infected, untreated control cultures), 8 and 10 (analog or decanoate treated cultures). The average number of multi-nucleated giant cells counted per 10 low-power fields (LPF =40 times magnification) was assigned to an arbitrary syncytia scale: 0=<1/LPF, 1+=1-4/LPF, 2+=5-7/LPF, 3+= 8-10/LPF, 4+=>10/LPF. By this criteria uninfected, control cells had zero synctia, and infected, untreated H9 cells were consistently scored as 4+.

[5] = tested on: MoMLV; test: MoMLV replication: LZ1 virus titer by histochemical staining of NIH 3T3 cells for β-galactosidase; type: cell-based, Maloney murine leukemia virus
From the text: Panel A -Schematic representation of the MoMLV assay system. […] This cell produces infectious, replication defective virus (designated (LZ1) which carries the LacZ gene. When NIH3T3 cells are exposed to supernatant taken from the LZ1 virus producing cells, they are initially infected and their progeny are detectable by histochemical staining for β-galactosidase. Thus, the titer of the virus produced by the LZ1 cells after treatment with the various agents, can be readily determined by counting the number of blue NIH3T3 cells. Replication competent MoMLV is not detected using this assay system since the lacZ gene product is not present. Panel B - The effect of 6-oxamyristic acid and 13-oxamyristic acid on LZ1 virus production. The results represent the mean (+1 standard deviation) of three independent tests each done in duplicate. Panel C - Number of viable LZ1 producing cells at the end of a 2 day treatment with analog as measured by trypan blue exclusion. The results of duplicate assays were averaged. Panel D - The effects of analog treatment on incorporation of [^3 H]leucine. Cells in duplicate wells were pulse labeled for 4 h following three days of incubation with analog or ethanol (0.1%). Duplicate assays were performed. The results were averaged and expressed as a percentage of the results obtained from untreated cells.
Assay of the Effects of Analogs on the Replication of Maloney Murine Leukemia Virus. The LZ1 titer assay was developed for rapid histochemical quantitation of infectious virus production. In brief, the LZ1 virus-producing cell line was derived by Sanes et al., EMBO J. 5, 3133-3142 (1986), from the .PSI.-2 cell line. .PSI.-2-cells are NIH 3T3 cells that contain a stably integrated packaging mutant (pMOV-.PSI.-) of MoMLV. This mutant has a deletion of 350 nucleotides between the 5' donor splice site for env and the initiator methionine codon for Pr65^gag [Mann et al., Cell 33, 153-159 (1983)]. The LZ1 cell line is a subclone of .PSI.-2 cells that were co-transfectd with pM-MuLV-SV-LacZ [Sanes et al., supra.]and pSVTK neoB and then selected for G418 (Geneticin®) antibiotic resistance and production of defective MoMLV containing the E. coli β-galactosidase gene [Sanes et al., supra.]. The recombinant virus produced by LZ1 cells is capable of primary infection of NIH 3T3 cells but is replication defective [Sanes et al., surpa.]. Infected NIH 3T3 containing the lac-Z gene can be identified by histochemical staining for β-galactosidase activity.
To assess the effects of analog treatment on MoMLV replication, 1 × 10^5 LZ1 producing cells were added to each well of a 24-well tissue culture plate in 1 mL of Dulbecco's Modified Eagle's medium (DME) containing calf serum (final concentration =10%), penicillin (100 IU/mL), streptomycin (100 μg/mL) with or without analog (10-100 μM). After 24 h, the media was removed and fresh serum-containing media ±analog was added. The next day (48 hours after plating), the virus containing supernatant was removed and passed through a 0.2 μm filter. Various size aliquots (25-100 μL of the 1 mL filtrate) were added to 1 × 10^4 NIH 3T3 cells contained in 1 mL of DME/10% calf serum/penicillin/streptomycin. These indicator cells had been plated 24 h earlier in 24 well tissue culture plates. Polybrene (Sigma) was added at the same time as the filtrate so that its final concentration was 10 μg/mL. […]

[6] = tested on: virus; test: Antiviral effectiveness compared with C13-C14 analogs; settings: C16 saturated fatty acid analog
[7] = tested on: AIDS virus (HIV); settings: cited from earlier work

Q: Which “effect on reverse transcriptase activity” value [1] does the source give for `CCCOCCCCCCCCCC(=O)O` [11oxamyristate, 10-(Propoxy)decanoic acid] here?
A: More pronounced effects

Q: Which “effect on reverse transcriptase activity” value [1] does the source give for `CCSCCCCCCCCCCC(=O)O` [12thiamyristate, 11-(Ethylthio)undecanoic acid] here?
A: More pronounced effects

Q: What about the hydrophobicity [2] of the same compound?
A: decreases its hydrophobicity

Q: And the “ability to act as a substrate for NMT” value [3]?
A: leaves intact its ability to act as a substrate

Q: Which activity at 100 µM [1] does the source give for `CCCCCCCCCC(=O)O` [decanoic acid, reference compound] here?
A: 80%

Q: What about the “effect on number of syncytia” value [4] of the same compound?
A: no effect on the number of synctia

Q: What about the “reduction of MoMLV titers compared to untreated controls” value ([5]; 10-100 μM, 2 day treatment of LZ1 cells) of the same compound?
A: no significant reductions

Q: Which “effectiveness versus analogs based on C13-C14 fatty acids” value [6] does the source give for `CCCCOCCCCCCCCCCC(=O)O` [Compound I, 11-(1-butoxy)undecanoic acid] here?
A: less effective than the analogs based on C13 -C14 fatty acids

Q: Which “effect on reverse transcriptase activity” value [1] does the source give for `CCCCCCCCOCCCCC(=O)O` [6-oxamyristate, 5-(octyloxy)pentanoic acid] here?
A: No reduction in reverse transcriptase activity

Q: What about the “relative efficacy on HIV-1 production” value ([1]; 1-100 μM, H9 cells, ranking among the four analogs) of the same compound?
A: least effective

Q: And the “effect on HIV-1 production / replication” value ([1]; H9 cells)?
A: no effect on HIV-1 replication

Q: And the activity at 100 µM [1]?
A: 20%

Q: And the inhibition at 100 µM ([5]; Murine leukemia virus, NIH3T3, 48 h, read-out: average reduction in virus titers (MoMLV))?
A: > 60%

Q: What about the inhibition at 10 µM ([5]; Murine leukemia virus, NIH3T3, 48 h, read-out: reduction in MoMLV replication (virus titer)) of the same compound?
A: 40%

Q: And the “effect on MoMLV replication” value ([5]; up to 100 μM, 2 day treatment of LZ1 cells)?
A: inhibits MoMLV replication in a concentration dependent fashion

Q: For `Cc1cn([C@H]2C[C@H](N=[N+]=[N-])[C@@H](CO)O2)c(=O)[nH]c1=O` [AZT, 3'-azido-3'-deoxythymidine, reference compound], which inhibition at 5 µM ([1]; Human immunodeficiency virus 1, H9, read-out: inhibition of viral replication in the H9 acute assay) is on record?
A: > 90%

Q: And the “inhibition of replication of the virus in vitro” value [7]?
A: shown to inhibit replicaton of the virus in vitro
